From BindingDB's records for patent US11098029 (Merck Sharp & Dohme, 2021)

Molecular target: T1, Orexin receptor type 2 (Homo sapiens, UniProt O43614)
T1 sequence (O43614 whole entry): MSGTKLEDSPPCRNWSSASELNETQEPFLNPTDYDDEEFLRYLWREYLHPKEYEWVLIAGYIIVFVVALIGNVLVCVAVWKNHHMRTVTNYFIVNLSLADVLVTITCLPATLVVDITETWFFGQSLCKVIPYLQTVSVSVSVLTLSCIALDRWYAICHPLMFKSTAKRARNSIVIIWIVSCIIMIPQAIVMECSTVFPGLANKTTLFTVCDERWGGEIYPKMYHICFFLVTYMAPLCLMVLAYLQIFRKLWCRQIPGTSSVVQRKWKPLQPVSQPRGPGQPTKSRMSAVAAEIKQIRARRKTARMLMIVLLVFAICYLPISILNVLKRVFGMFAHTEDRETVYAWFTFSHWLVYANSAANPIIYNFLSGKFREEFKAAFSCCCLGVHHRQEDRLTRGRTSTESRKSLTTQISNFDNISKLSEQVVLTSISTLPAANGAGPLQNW
Assay: Receptor Activity Assay
Method: In a typical experiment, the OX1 and OX2 receptor agonist activity is determined in accordance with the following general experimental method.

In order of falling IC50:
1. COC(=O)N1[C@H](C)C[C@H](NS(C)(=O)=O)[C@@H]1COC1CCC(CC(F)(F)F)CC1 (some centres not stated) [US11098029, Example 12]  390 nM
2. COC(=O)N1[C@H](C)C[C@H](NS(=O)(=O)N(C)C)[C@@H]1COC1CCC(C(F)(F)F)CC1 (some centres not stated) [US11098029, Example 11]  264 nM
3. CC(C)OC(=O)N1[C@H](C)C[C@H](NS(C)(=O)=O)[C@@H]1COC1CCC(C(C)C)CC1 (some centres not stated) [US11098029, Example 5]  227 nM
4. CCNC(=O)N1[C@H](C)C[C@H](NS(C)(=O)=O)[C@@H]1COC1CCC(C(F)(F)F)CC1 (some centres not stated) [US11098029, Example 2]  117 nM
5. CC(C)C1CCC(OC[C@H]2[C@@H](NS(C)(=O)=O)C[C@@H](C)N2C(=O)OCCF)CC1 (some centres not stated) [US11098029, Example 10]  69.3 nM
6. COC(=O)N1[C@H](C)C[C@H](NS(C)(=O)=O)[C@@H]1COC1CCC(C(C)C)CC1 (some centres not stated) [US11098029, Example 3]  19.3 nM
7. CCOC(=O)N1[C@H](C)C[C@H](NS(=O)(=O)N(C)C)[C@@H]1COC1CCC(C(C)C)CC1 (some centres not stated) [US11098029, Example 8]  9.52 nM
8. CC(C)C1CCC(OC[C@H]2[C@@H](NS(C)(=O)=O)C[C@@H](C)N2C(=O)OCC(F)F)CC1 (some centres not stated) [US11098029, Example 9]  8.57 nM
9. CC[C@@H]1C[C@H](NS(C)(=O)=O)[C@H](CO[C@H]2CC[C@@H](c3ccccc3)CC2)N1C(=O)OC (racemic) [US11098029, Example 43]  8.1 nM
10. CC(C)C1CCC(OC[C@H]2[C@@H](NS(=O)(=O)N(C)C)C[C@@H](C)N2C(=O)OCC(F)F)CC1 (some centres not stated) [US11098029, Example 14]  2.5 nM
11. CNS(=O)(=O)N[C@H]1C[C@@H](C)N(C(=O)OCC(F)F)[C@H]1COC1CCC(C(C)C)CC1 (some centres not stated) [US11098029, Example 13]  1.9 nM
12. COC(=O)N1[C@H](C)C[C@H](NS(=O)(=O)N(C)CCS(C)(=O)=O)[C@@H]1COC1CCC(c2cccc(F)c2)CC1 (some centres not stated) [US11098029, Example 57]  1.6 nM
